Results published in ChEMBL document CHEMBL3751811, “The discovery of a novel antibiotic for the treatment of Clostridium difficile infections: a story of an effective academic-industrial partnership” (Medchemcomm, 2015).
Converted amounts (≈) assume the structure as drawn.

How the values were obtained:
Clostridioides difficile [1] = assay: Antibacterial activity against Clostridium difficile R20291 assessed as growth inhibition; type: functional
Clostridioides difficile [2] = assay: Antibacterial activity against Clostridium difficile CD 630 assessed as growth inhibition; type: functional
DNA gyrase = DNA gyrase (Staphylococcus aureus, UniProt P0A0K8+P20831); assay: Inhibition of Staphylococcus aureus DNA gyrase assessed as reduction in enzyme-catalyzed supercoiling of relaxed circular pBR322 DNA incubated for 30 mins by agarose gel electrophoresis; type: protein-complex assay
Escherichia coli [3] = assay: Antibacterial activity against Escherichia coli NCTC 10418 assessed as growth inhibition; type: functional
[4] = Inhibition of Staphylococcus aureus topoisomerase 4 assessed as inhibition of decatenation of catenated kinetoplast DNA after 30 mins by agarose gel electrophoresis
Escherichia coli [5] = assay: Antibacterial activity against Escherichia coli MC 1061 assessed as growth inhibition; type: functional
Staphylococcus aureus [6] = assay: Antibacterial activity against Staphylococcus aureus ATCC 29213 assessed as growth inhibition after 20 hrs by broth dilution method; type: functional; details: ATCC 29213, 20 h
Staphylococcus aureus [7] = assay: Antibacterial activity against clinical isolates of Staphylococcus aureus EMRSA-16 assessed as growth inhibition after 20 hrs by broth dilution method; type: functional; details: EMRSA-16, 20 h
[8] = Inhibition of Escherichia coli topoisomerase 4-mediated DNA decatenation activity
[9] = Inhibition of Escherichia coli topoisomerase 4-mediated DNA relaxation activity
[10] = tested on: Mycobacterium tuberculosis; assay: Antibacterial activity against Mycobacterium tuberculosis H37Rv logarithmic phase forms by spot culture growth inhibition assay; type: functional
[11] = biological target: DNA gyrase subunit A/DNA gyrase subunit B (Mycobacterium tuberculosis (strain ATCC 25618 / H37Rv), UniProt P9WG45+P9WG47); assay: Inhibition of Mycobacterium tuberculosis H37Rv DNA gyrase supercoiling activity
[12] = Inhibition of Escherichia coli DNA gyrase supercoiling activity
[13] = tested on: Mycobacterium tuberculosis; assay: Antibacterial activity against Mycobacterium tuberculosis H37Rv hypoxia-induced latency form by spot culture growth inhibition assay; type: functional
[14] = Inhibition of Clostridium difficile DNA gyrase supercoiling activity; design: species or system Clostridioides difficile

Sequence of DNA gyrase (P0A0K8 whole entry): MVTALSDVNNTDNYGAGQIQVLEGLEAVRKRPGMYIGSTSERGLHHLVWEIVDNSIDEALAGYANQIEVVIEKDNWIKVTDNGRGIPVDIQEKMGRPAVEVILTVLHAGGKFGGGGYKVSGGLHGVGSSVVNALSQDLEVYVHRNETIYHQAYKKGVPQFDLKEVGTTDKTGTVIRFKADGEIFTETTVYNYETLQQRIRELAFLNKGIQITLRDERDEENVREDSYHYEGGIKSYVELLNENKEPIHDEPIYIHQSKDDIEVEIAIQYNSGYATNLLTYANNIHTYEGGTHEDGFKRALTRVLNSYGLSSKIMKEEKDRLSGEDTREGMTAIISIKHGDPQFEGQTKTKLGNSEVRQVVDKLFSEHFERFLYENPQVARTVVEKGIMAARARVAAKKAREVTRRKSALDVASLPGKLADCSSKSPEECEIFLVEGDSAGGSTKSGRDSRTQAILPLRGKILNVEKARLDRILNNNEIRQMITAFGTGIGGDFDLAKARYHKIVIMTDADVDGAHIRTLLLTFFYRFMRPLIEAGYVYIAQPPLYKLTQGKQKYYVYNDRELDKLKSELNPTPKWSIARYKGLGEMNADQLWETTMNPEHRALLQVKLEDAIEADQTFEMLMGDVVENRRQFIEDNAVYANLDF
Sequence of DNA gyrase (P20831 whole entry): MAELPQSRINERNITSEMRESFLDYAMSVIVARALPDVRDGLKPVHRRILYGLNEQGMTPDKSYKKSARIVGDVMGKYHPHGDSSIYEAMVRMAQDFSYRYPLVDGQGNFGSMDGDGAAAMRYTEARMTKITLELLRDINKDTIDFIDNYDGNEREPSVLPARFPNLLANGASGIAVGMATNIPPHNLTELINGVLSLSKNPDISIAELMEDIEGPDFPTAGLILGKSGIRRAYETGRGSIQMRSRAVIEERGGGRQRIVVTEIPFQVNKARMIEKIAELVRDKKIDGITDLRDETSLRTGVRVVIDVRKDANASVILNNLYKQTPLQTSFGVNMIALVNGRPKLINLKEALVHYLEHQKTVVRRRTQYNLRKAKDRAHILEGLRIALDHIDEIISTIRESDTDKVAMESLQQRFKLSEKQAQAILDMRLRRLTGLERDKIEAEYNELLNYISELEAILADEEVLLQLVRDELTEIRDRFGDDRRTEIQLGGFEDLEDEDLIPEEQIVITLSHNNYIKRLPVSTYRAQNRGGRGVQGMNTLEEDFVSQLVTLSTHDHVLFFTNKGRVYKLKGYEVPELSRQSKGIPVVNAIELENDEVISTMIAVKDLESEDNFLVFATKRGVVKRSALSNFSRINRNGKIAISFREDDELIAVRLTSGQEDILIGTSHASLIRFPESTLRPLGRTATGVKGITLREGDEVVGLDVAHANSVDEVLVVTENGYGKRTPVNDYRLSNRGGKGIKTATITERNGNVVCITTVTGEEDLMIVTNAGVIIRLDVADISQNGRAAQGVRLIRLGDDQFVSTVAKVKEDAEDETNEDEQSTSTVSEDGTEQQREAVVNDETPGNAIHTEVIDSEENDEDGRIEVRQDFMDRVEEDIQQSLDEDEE
Sequence of DNA gyrase subunit A/DNA gyrase subunit B (P9WG45 whole entry): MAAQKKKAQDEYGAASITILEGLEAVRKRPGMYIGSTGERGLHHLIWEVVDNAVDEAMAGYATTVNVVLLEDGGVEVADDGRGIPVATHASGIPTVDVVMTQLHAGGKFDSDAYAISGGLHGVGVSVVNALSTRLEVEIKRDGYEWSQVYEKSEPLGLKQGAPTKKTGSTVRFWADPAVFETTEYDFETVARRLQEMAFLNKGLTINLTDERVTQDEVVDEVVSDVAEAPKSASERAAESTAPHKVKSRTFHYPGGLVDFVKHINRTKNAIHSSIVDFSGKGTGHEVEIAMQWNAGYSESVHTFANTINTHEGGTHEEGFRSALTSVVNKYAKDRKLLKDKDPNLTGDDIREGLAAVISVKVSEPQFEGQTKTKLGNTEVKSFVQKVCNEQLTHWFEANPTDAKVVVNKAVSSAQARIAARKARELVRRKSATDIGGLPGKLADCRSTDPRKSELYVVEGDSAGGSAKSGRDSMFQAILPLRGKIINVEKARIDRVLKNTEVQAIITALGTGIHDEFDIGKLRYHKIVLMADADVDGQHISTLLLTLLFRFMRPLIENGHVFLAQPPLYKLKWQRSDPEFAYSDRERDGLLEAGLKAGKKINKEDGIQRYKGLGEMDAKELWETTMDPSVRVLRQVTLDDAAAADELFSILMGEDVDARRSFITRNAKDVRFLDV
Sequence of DNA gyrase subunit A/DNA gyrase subunit B (P9WG47 whole entry): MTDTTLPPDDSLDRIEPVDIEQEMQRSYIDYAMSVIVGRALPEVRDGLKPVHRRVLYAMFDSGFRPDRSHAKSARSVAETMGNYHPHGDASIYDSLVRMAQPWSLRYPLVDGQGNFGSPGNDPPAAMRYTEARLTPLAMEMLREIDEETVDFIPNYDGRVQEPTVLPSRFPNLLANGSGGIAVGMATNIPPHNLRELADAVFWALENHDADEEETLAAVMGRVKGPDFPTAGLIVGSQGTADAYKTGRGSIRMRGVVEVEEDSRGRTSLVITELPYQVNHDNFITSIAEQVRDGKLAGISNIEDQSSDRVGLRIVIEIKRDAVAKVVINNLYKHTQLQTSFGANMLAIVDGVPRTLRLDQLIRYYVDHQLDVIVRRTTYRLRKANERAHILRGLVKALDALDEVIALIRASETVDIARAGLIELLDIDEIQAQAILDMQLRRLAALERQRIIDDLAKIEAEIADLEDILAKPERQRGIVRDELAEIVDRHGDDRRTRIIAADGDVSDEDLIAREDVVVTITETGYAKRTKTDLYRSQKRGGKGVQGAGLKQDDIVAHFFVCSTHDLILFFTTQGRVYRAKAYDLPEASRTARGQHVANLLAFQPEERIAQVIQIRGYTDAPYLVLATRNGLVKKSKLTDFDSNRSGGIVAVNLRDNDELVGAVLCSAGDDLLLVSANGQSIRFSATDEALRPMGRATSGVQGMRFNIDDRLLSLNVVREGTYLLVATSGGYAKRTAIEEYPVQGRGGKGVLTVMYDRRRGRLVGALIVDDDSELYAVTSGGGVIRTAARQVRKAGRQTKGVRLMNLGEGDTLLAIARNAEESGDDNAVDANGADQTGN

With `COc1cccc(-c2nc3ccc(-c4ccc5nc(-c6cccc(OC)c6)[nH]c5c4)cc3[nH]2)c1` the MIC90 (Clostridioides difficile [1]) was > 32 µg/mL, the MIC90 (Clostridioides difficile [2]) was > 32 µg/mL and the IC50 (DNA gyrase) was 8.8 µM. The MIC90 (Escherichia coli [3]) was > 64 µg/mL, the IC50 [4] was 70.3 µM and the MIC90 (Escherichia coli [5]) was > 64 µg/mL. For the same molecule, the MIC90 (Staphylococcus aureus [6]) was > 128 µg/mL, the MIC90 (Staphylococcus aureus [7]) was > 128 µg/mL and the IC50 [8] was > 50 µM. The IC50 [9] was > 50 µM, the MIC90 [10] was > 16 µg/mL and the IC50 [11] was 29 µM. The IC50 [12] was > 50 µM.

With `Cc1ccc(-c2nc3ccc(-c4ccc5nc(-c6ccc(C)cc6)[nH]c5c4)cc3[nH]2)cc1` the MIC90 (Clostridioides difficile [1]) was 0.06 µg/mL (≈ 0.145 µM), the MIC90 (Clostridioides difficile [2]) was 0.06 µg/mL (≈ 0.145 µM) and the IC50 (DNA gyrase) was 5.6 µM. The MIC90 (Escherichia coli [3]) was > 64 µg/mL, the IC50 [4] was 50.9 µM and the MIC90 [13] was 2 µg/mL (≈ 4.82 µM). It also gave an MIC90 (Escherichia coli [5]) of 0.06 µg/mL (≈ 0.145 µM), an MIC90 (Staphylococcus aureus [6]) of 0.03 µg/mL (≈ 0.0724 µM) and an MIC90 (Staphylococcus aureus [7]) of 0.06 µg/mL (≈ 0.145 µM). For the same molecule, the IC50 [8] was > 50 µM, the IC50 [9] was > 50 µM and the MIC90 [10] was 1 µg/mL (≈ 2.41 µM). The IC50 [11] was 2 µM and the IC50 [12] was > 50 µM.

In the case of `Nc1ccc(-c2nc3cc(-c4ccc5[nH]c(-c6ccc(N)cc6)nc5c4)ccc3[nH]2)cc1`, the MIC90 (Clostridioides difficile [1]) is reported as 0.125 µg/mL (≈ 0.3 µM), the MIC90 (Clostridioides difficile [2]) is reported as 0.03 µg/mL (≈ 0.072 µM) and the IC50 (DNA gyrase) is reported as 0.3 µM. The MIC90 (Escherichia coli [3]) was > 64 µg/mL, the IC50 [14] was 8.4 µM and the IC50 [4] was 15.5 µM. For the same molecule, the MIC90 [13] was 8 µg/mL (≈ 19.2 µM), the MIC90 (Escherichia coli [5]) was 0.06 µg/mL (≈ 0.144 µM) and the MIC90 (Staphylococcus aureus [6]) was 0.125 µg/mL (≈ 0.3 µM). It also gave an MIC90 (Staphylococcus aureus [7]) of 0.5 µg/mL (≈ 1.2 µM), an IC50 [8] of 8 µM and an IC50 [9] of 6.5 µM. The MIC90 [10] was 16 µg/mL (≈ 38.4 µM), the IC50 [11] was 11.3 µM and the IC50 [12] was > 50 µM.

For `c1cc(-c2nc3cc(-c4ccc5[nH]c(-c6ccncc6)nc5c4)ccc3[nH]2)ccn1` [RIDINILAZOLE], the MIC90 (Clostridioides difficile [1]) was 0.125 µg/mL (≈ 0.322 µM), the MIC90 (Clostridioides difficile [2]) was 0.06 µg/mL (≈ 0.154 µM) and the IC50 (DNA gyrase) was > 50 µM. For the same molecule, the MIC90 (Escherichia coli [3]) was > 16 µg/mL, the IC50 [14] was > 50 µM and the IC50 [4] was > 50 µM. For the same molecule, the MIC90 (Staphylococcus aureus [6]) was > 128 µg/mL, the MIC90 (Staphylococcus aureus [7]) was > 128 µg/mL and the IC50 [8] was > 50 µM. For the same molecule, the IC50 [12] was > 50 µM.
